{
  "source": "paper PMC7477582",
  "about": "“Context dependent effects of ascorbic acid treatment in TET2 mutant myeloid neoplasia” (Communications Biology, 2020)",
  "target": "T1, TET2 catalytic domain (TET2CD) (Homo sapiens, UniProt Q6N021, DEL1481-1843)",
  "T1 construct": "GST-TET2CD (1099–1936 Del-insert), expressed in E. coli; also GST tag free TET2CD",
  "experiment": "SPR (Biacore […]), GST-TET2CD captured by anti-GST on CM5 chip; supported by Kd […] on 5mC-DNA-captured TET2CD and 5hmC ELISA EC50 […]",
  "type": "binding",
  "data": [
    {"smiles": "O=C1O[C@H]([C@@H](O)CO)C(O)=C1O", "note": "[AA, Ascorbic acid]", "values": [
      {"measurement": "Kd", "result": "9.1 ± 2.3", "unit": "µM"}
    ]}
  ]
}
